{"source": "patent EP4745153A1", "about": "“GLP-1, GIP AND GCG RECEPTOR […] USE THEREOF” (Jiangsu Hengrui Pharmaceuticals Co., Ltd., priority 2023, dated 2025)", "key": {"[1]": {"test": "Pharmacokinetics in mice after single intravenous injection", "parameters": "species or system C57 mice", "conditions": "mouse, in vivo, male C57 mice, single intravenous dose 200 nmol/kg, plasma", "how_it_was_run": "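Plasma concentrations were measured by positive-mode ESI LC-MS/MRM, with verapamil as internal standard, at time points from 5 min to 72 h. Samples came from three male C57 mice per compound, aged 4-6 weeks, dosed once intravenously with 200 nmol/kg in 1×PBS; PK parameters were derived with PKSolver.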"}, "[2]": {"test": "In vivo efficacy in diet-induced obesity (DIO) mouse model", "parameters": "species or system C57BL/6J mice", "conditions": "10 nmol/kg subcutaneous once daily for 24 days", "description": "In this example, a DIO mouse model established by high-fat diet induction was used to evaluate the effects on and improvement of obesity and diabetes-related indicators in DIO mice after subcutaneous injection of some of the compounds in the present disclosure.\n4.1 Experimental methods: Obese male C57BL/6J mice (23-24 weeks old, obtained from Beijing Vital River Laboratory Animal Technology Co., Ltd.) induced by a high-fat diet were purchased. Six-week-old male C57BL/6J mice were fed a 60% high-fat diet (RD D12492) until their body weight reached 45-50g to obtain DIO model mice. After arriving at the facility and undergoing a week of acclimatization feeding, the animals were randomly divided into groups according to their body weight and administered vehicle (model group), LY3437943, Compound 15, Compound 16, Compound 17 and Compound 18 via subcutaneous injection in the neck. The compound was administered at a dose of 10 nmol/kg, and the frequency of administration was once daily via subcutaneous injection for 24 days. Each group contained 5 DIO mice. According to the experimental design, the body weight of each mouse was weighed and recorded daily at 3 pm or before administration, the average body weight of each group of mice was calculated, and a curve of body weight change over time was plotted. After the experiment, the fat and other organs of the mice were removed from various parts of the body, weighed, and recorded."}, "human GIPR": {"biological_target": "T1, human GIPR (Homo sapiens, UniProt P48546)", "T1 construct": "expressed in transfected cells; host or cells: CHO-K1 clonal cell line", "T1 sequence (P48546 22-466)": "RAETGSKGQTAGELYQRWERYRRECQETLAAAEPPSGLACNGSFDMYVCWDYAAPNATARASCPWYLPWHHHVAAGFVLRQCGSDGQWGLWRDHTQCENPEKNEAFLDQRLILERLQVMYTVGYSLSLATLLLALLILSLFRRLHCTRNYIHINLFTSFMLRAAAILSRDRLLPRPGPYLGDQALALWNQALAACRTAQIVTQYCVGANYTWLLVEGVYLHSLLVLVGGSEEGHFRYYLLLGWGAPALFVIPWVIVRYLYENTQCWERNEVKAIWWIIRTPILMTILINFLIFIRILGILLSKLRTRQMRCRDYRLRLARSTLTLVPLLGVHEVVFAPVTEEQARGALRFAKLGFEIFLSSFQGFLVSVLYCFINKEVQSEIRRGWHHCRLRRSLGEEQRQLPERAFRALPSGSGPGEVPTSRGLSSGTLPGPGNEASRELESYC", "test": "cAMP HTRF agonist activity assay in CHO-K1 cells expressing GIPR", "assay_type": "cell-based", "how_it_was_run": "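cAMP accumulation measured by competitive HTRF after 30 min incubation of polypeptides with 5000 receptor-expressing CHO-K1 cells/well at 37°C. Percent of maximal response versus concentration fitted to a four-parameter logistic to give relative EC50.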"}, "[3]": {"test": "In vivo efficacy in diet-induced obesity (DIO) rat model", "conditions": "DIO rats", "description": "In this experiment, a DIO rat model established on a 45% high-fat diet (HFD) was used to evaluate the effects of compounds on obesity-related indicators in DIO rats.\nAfter one week of acclimatization, all rats were randomly divided into two groups: a normal group and a model group. The rats in the model group were then fed 45% HFD (Medison: MD12032), while the rats in the normal group were fed normal food. The body weight of the rats was measured weekly to monitor the modeling process.\nDIO rats fed a high-fat diet for 37 weeks were weighed, and 75 DIO rats (approximately 1100g) and 8 rats (approximately 800g) on a normal diet (Chow diet) were selected and separated into individual cages. Each cage was fed approximately 100g of food at a time, and the food was changed every 48 hours. A preliminary sham dose experiment was then conducted. Subcutaneous acupuncture was performed on the neck once daily at 4 pm for 9 consecutive days. Body weight was measured before each acupuncture session and the effect of sham dose on body weight was observed. A curve of body weight changes over time was plotted. The formal dosing experiment was initiated after the body weight had stabilized.\nSix Chow diet rats (weighing approximately 800g) and 30 HFD rats (weighing approximately 1100g) were selected through a preliminary sham dose experiment for subsequent dosing experiments. […] During the experiment, all rats were housed in single cages. The compound was dissolved in PBS solution at pH 7.4. On the day of grouping (Day 1), rats in each group were given the drug by subcutaneous injection in the neck according to their body weight, once daily (QD), as detailed in Table 9. […] The body weight was measured once daily at 15:00 or before administration, and a curve of body weight changes over time was plotted. Food intake: 1-7 days, measured once daily at 15:00 or before administration; 8-40 days, measured once every three days at 15:00 or before administration. A curve of changes in daily/cumulative food intake over time was plotted. Table 9. Dosing information for experimental groups"}, "[4]": {"conditions": "after dose adjustment, 3 nmol/kg subcutaneous QD"}}, "note": "Starred links: 1 amine or outer side, 2 acyl side, 3 side chain; linkers in the order of their positions; H or OH if unused. Non-standard residues stand in square brackets, D forms with d. Residues, ends and D or L forms follow the SMILES beside them. Groups on a side chain read outwards from the residue. *: point of attachment. C20 diacid = O=C(O)CCCCCCCCCCCCCCCCCCC(=O)*; γGlu = O=C(O)[C@H](CCC(=O)[*:2])N[*:1]; AEEA = NCCOCCOCC(=O)O; Aib = CC(C)(N)C(=O)O"}
{"smiles": "CC[C@H](C)[C@H](NC(=O)[C@H](CO)NC(=O)[C@H](Cc1ccc(O)cc1)NC(=O)[C@H](CC(=O)O)NC(=O)[C@H](CO)NC(=O)[C@@H](NC(=O)[C@H](Cc1ccccc1)NC(=O)[C@@H](NC(=O)CNC(=O)[C@H](Cc1c[nH]cn1)NC(=O)C(C)(C)NC(=O)[C@@H](N)Cc1c[nH]cn1)[C@@H](C)O)[C@@H](C)O)C(=O)N[C@@H](CC(C)C)C(=O)N[C@@H](CC(C)C)C(=O)N[C@@H](CCC(=O)O)C(=O)N[C@@H](CCCCNC(=O)COCCOCCNC(=O)COCCOCCNC(=O)CC[C@H](NC(=O)CCCCCCCCCCCCCCCCCCC(=O)O)C(=O)O)C(=O)N[C@@H](CCCCN)C(=O)N[C@@H](C)C(=O)N[C@@H](C)C(=O)N[C@@H](CCC(N)=O)C(=O)N[C@@H](CCC(=O)O)C(=O)N[C@@H](Cc1ccccc1)C(=O)N[C@H](C(=O)N[C@@H](CCC(=O)O)C(=O)N[C@@H](Cc1c[nH]c2ccccc12)C(=O)N[C@@H](CC(C)C)C(=O)N[C@@H](CC(C)C)C(=O)N[C@@H](C)C(=O)NCC(=O)NCC(=O)N1CCC[C@H]1C(=O)N[C@@H](CO)C(=O)N[C@@H](CO)C(=O)NCC(=O)N[C@@H](C)C(=O)N1CCC[C@H]1C(=O)N1CCC[C@H]1C(=O)N1CCC[C@H]1C(=O)N[C@@H](CO)C(N)=O)C(C)C", "note": "[Compound 0120] (H-H[Aib]HGTFTSDYSILLEK([AEEA-AEEA-γGlu-C20 diacid])KAAQEFVEWLLAGGPSSGAPPPS-NH2)", "values": [{"measurement": "AUC(0-inf)", "setting": "[1]", "value": 94.1, "unit": "µM·h"}, {"measurement": "C0", "setting": "[1]", "value": 9.93, "unit": "µM"}, {"measurement": "clearance", "setting": "[1]; read-out: CLp", "value": 2.04, "unit": "mL/h/kg"}, {"measurement": "half-life", "setting": "[1]; read-out: T1/2 (converted)", "value": 14.7, "unit": "h"}, {"measurement": "body weight of DIO mice compared with the test group given the vehicle", "setting": "[2]", "value": "significant reduction in body weight"}, {"measurement": "final body weight relative to body weight of mice on a normal diet (Chow)", "setting": "[2]; indicating good safety", "value": "≥ 80", "unit": "%"}, {"measurement": "body weight reduction at the experimental endpoint", "setting": "[2]; DIO mice", "value": 36.6, "unit": "%"}, {"measurement": "EC50", "setting": "human GIPR", "value": 2, "unit": "pM"}, {"measurement": "24h food intake compared with the model group", "setting": "[3]; [4]", "value": "significantly reduced"}, {"measurement": "cumulative food intake compared with the model group", "setting": "[3]; [4]", "value": "significantly reduced"}, {"measurement": "cumulative food intake", "setting": "[3]; entire administration period (before and after dose adjustment), 0.3 then 3 nmol/kg subcutaneous QD", "value": "258.8 ± 23.5", "unit": "g"}, {"measurement": "body weight loss at the end of the experiment", "setting": "[3]; subcutaneous QD, 0.3 nmol/kg adjusted to 3 nmol/kg from day 15", "value": 30.2, "unit": "%"}, {"measurement": "body weight compared with the model group", "setting": "[3]; subcutaneous QD, 1 nmol/kg, before adjusting the administration dose", "value": "decreasing trend"}]}
